Experimental data as given in US20130142877A1, “PHARMACEUTICAL DOSAGE FORM COMPRISING ONE OR MORE ANTIRETROVIRAL ACTIVE INGREDIENTS” (EVONIK ROEHM GmbH, priority 2010, published 2013).

Assay: Crystallinity analysis by X-ray diffraction (XRD)
Type: physicochemical
Details: pure API or extrudate after melt extrusion
Procedure: The mixtures of examples 1 to 4 were extrudated, comminuted and subsequently sifted through a sieve of 40 mesh (0.42 mm) and analyzed. X-ray diffraction analysis was carried out for crytallinity. Dissolution rate analysis of both active compound was carried out to check solubility enhancement.

Row | Crystallinity by X-ray diffraction (XRD pattern) | SMILES
1 | crystalline form | Cc1cccc(C)c1OCC(=O)N[C@@H](Cc1ccccc1)[C@@H](O)C[C@H](Cc1ccccc1)NC(=O)[C@H](C(C)C)N1CCCNC1=O [Lopinavir]
2 | crystalline form | CC(C)c1nc(CN(C)C(=O)N[C@H](C(=O)N[C@@H](Cc2ccccc2)C[C@H](O)[C@H](Cc2ccccc2)NC(=O)OCc2cncs2)C(C)C)cs1 [Ritonavir]
